These results are taken from article PMC9249674, “A small-molecule Skp1 inhibitor elicits cell death by p53-dependent mechanism” (iScience, 2022).

The test system of assay [1] is mycobacterial. The assay is described as follows: Anti-mycobacterial evaluation. It is filed as cell-based.
The subject of assay [2] is Huh-7. The assay is described as follows: Cell viability assay (Cell-Titer GLO). The conditions noted are these: Homo sapiens, Liver cancer, 48 hrs, read-out: Anti-proliferative EC50. It is filed as cell-based. How it is done:
(§1) For cell viability, cells were seeded in 384 opaque-walled plates with clear bottoms at 300–500 cells per well (optimum density for growth) in a total volume of 20 μL of media. The media was according to culture conditions of each individual cell line (mentioned above). After 12 hrs, compounds were added in a total volume of 5 μL of media (two-fold diluted) to each well with final concentrations from 5 nM to 30 μM. The measurements were conducted 48 hrs after seeding of the cells. Then, 25 μL of Cell-Titer GLO reagent (Promega) was added, and luminescence was measured on an EnSpire multimode plate reader (PerkinElmer), according to the manufacturer’s instructions. The estimated in vitro half-maximal inhibitory concentration (EC50) values were calculated using GraphPad Prism® v6.0 (San Diego, CA) software. The cell viability for A549 cells was also performed for 72- and 96-hrs by using the same experimental conditions as described above.

Assay [3] has as its system HCT116. The assay can be described thus: Cell viability assay (Cell-Titer GLO). The conditions noted are these: Homo sapiens, HCT-116, Colon carcinoma, 48 hrs, read-out: Anti-proliferative EC50. Format: cell-based. How it is done: as §1
The subject of assay [4] is 95D. The assay is described as follows: Cell viability assay (Cell-Titer GLO). It is filed as cell-based. The note with it: Lung cancer, 48 hrs, read-out: Anti-proliferative EC50. As to the method: as §1
Assay [5] relates to K562. The assay is described as follows: Cell viability assay (Cell-Titer GLO). Format: cell-based. The note with it: Homo sapiens, Leukemia, 48 hrs, read-out: Anti-proliferative EC50. How it is done:
as §1

Assay [6] relates to A549 cells. The assay is described as follows: Cell viability assay (Cell-Titer GLO). Format: cell-based, human. The conditions noted are these: for EC50: Homo sapiens. As to the method: as §1, with “The” for “For cell viability, cells were seeded in 384 opaque-walled plates with clear bottoms at 300–500 cells per well (optimum density for growth) in a total volume of 20 μL of media. The”

Assay [7] deals with T1, ΔSkp1^1−140 (Homo sapiens, UniProt P63208).
T1 construct: pETDuet-Skp1(1-140); His6; made in house; host or cells: Escherichia coli BL21 (DE3)
The assay can be described thus: LC-MS/MS analysis of in vitro binding. The note with it: ΔSkp1^1−140, overnight incubation.

In assay [8] the test system is Skp1-ΔF-box complex. The assay can be described thus: LC-MS/MS analysis of in vitro binding. The conditions noted are these: overnight incubation.
In assay [9] the target is T1, ΔSkp1^1−140. The assay is described as follows: Thermal shift assay (TSA). It is filed as binding. The conditions noted are these: protein 8 μM. An excerpt: (§2) TSA, also known as differential scanning fluorimetry (DSF), is used to identify the contribution of a ligand binding to an unfolding protein as a function of temperature. The detection involves increase in fluorescence of a fluorophore SYPRO Orange (Invitrogen) upon binding to the hydrophobic regions of the gradually unfolded protein. A ligand stabilizing a protein may increase the melting temperature (Tm). To detect the binding of Z0933M with Skp1, a gradient TSA was used, in which, protein samples were mixed with appropriate concentrations of ligand over the range of several folds. The protein (Skp1^WT or ΔSkp1^1−140) was kept constant at 8 μM, and the compound concentration was varied from 50 μM to 600 μM. For comparison with 6-OAP, a single concentration of 400 μM was tested with both Skp1^WT and ΔSkp1^1−140. All reactions were set up in final volume of 10 μL in 96-well plate with 1x SYPRO Orange (Invitrogen) and incubated with compounds on ice for 30 min. According to the experimental protocol, samples were heated at 0.5°C per minute, ranging from 30 to 90°C, and the fluorescence intensity was measured at the interval of 0.5°C. Appropriate buffer blank and protein-only controls were kept, and the shift in Tm was measured as ΔTm = Tm (ligand-protein) ‒ (protein-only). The resultant ΔTm values were plotted by using GraphPad Prism® v6.0 (San Diego, CA) and ORIGIN Lab softwares.

Assay [10] concerns the target T2, Skp1^WT (Homo sapiens, UniProt P63208).
T2 construct: recombinantly purify intact (Skp1^WT) and truncate (ΔSkp1^1−140; lacking H8-helix) forms of Skp1; His6; made in house; host or cells: Escherichia coli BL21 (DE3)
The assay can be described thus: Thermal shift assay (TSA). Format: binding. The conditions noted are these: protein 8 μM.
From the text: as §2

Assay [11] deals with T3, Skp1 interaction with NIPA (Homo sapiens, UniProt P63208).
T3 construct: host or cells: HEK293
The assay can be described thus: Cell-based FRET assay in HEK293 cells. The conditions noted are these: 4 hrs, increasing concentrations.

Assay [12] relates to A549 cells. The assay can be described thus: Flow cytometric analysis of cell cycle. It is filed as cell-based, human. The conditions noted are these: 0.5 μM, asynchronized and synchronized A549 cells. How it is done:
Both asynchronous and synchronous cells were analyzed by flow cytometry with DNA staining to determine the total amount of DNA. For asynchronous analysis, A549 cells were seeded into six-well plates at a density of 6 × 10^5 cells/well. After 14 to 16 hrs of seeding, the cells were treated with indicated concentrations of Z0933M for 24 hrs. Then, the cells were harvested, washed twice with cold PBS, and fixed in cold 70% ethanol on ice (around 4°C) for 4 hrs. Next, the cells were washed twice with cold PBS, resuspended with cold PBS containing […] RnaseA (Sigma), and incubated for 30 min at 37°C. Then, PBS containing […] propidium iodide (PI) (Sigma) was directly added, the cells were mixed gently, and incubated for 5–10 min at room temperature in the dark. Finally, the cell-cycle phase distribution was analyzed in three different experiments using flow cytometry (BD Biosciences, San Diego, CA, USA). At least 10,000 events/sample were acquired. Assays were conducted three times independently. The data was analyzed by FlowJo V10 software. For synchronous cell cycle analysis, cells were synchronized to G1/S boundary by a double-thymidine blockade ([Liu et al., 2015]), and then exposed to Z0933M for time-dependent or dose-dependent analysis. […] Cell cycle distribution was analyzed by flow cytometry (BD Biosciences, San Diego, CA, USA) and FlowJo V10 software.
(In general: In flow cytometry, cells or beads pass a laser one at a time.)

Read-outs that look alike come from different tables or passages of the source. Bounds are passed on as bounds.

T2 sequence (P63208 whole entry, the tested form may be a part): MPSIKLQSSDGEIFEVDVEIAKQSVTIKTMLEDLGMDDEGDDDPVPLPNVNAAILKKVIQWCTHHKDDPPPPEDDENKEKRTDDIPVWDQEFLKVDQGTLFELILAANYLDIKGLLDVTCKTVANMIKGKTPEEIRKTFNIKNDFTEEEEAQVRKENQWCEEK
T1 sequence (P63208 1-140, stated change not applied): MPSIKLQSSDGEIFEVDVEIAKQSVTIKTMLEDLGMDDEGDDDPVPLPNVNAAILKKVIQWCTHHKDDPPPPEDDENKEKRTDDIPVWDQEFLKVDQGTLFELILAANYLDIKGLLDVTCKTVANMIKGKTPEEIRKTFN
T3 sequence (P63208 whole entry): as the sequence (P63208 whole entry, the tested form may be a part) above

`Nc1ccc(-c2nc3ccccc3c3[nH]c4ccccc4c23)cc1` [Z0933M]: in [1], the MIC (commonly the lowest concentration that inhibits growth of the organism) is greater than 30 µM. The concentration giving a half-maximal response (EC50) (commonly the midpoint of the concentration-response curve) in [2] was 3600 ± 810 nM; in assay [3], 2820 ± 330 nM; in assay [4], 3140 ± 260 nM; in assay [5] it was 735 ± 30 nM; in [6] (A549, Lung cancer, 48 h, read-out: Anti-proliferative EC50) it was 580 ± 70 nM; in [6] (A549 cells, 72 hrs, read-out: EC50) it was 99 ± 1 nM. The concentration giving a half-maximal response (EC50) in [6] (A549 cells, 96 hrs, read-out: EC50) was 66 ± 18 nM. Besides, in [6] (A549 cells, 48 h, ratio of EC50 values), the “anti-proliferative potency relative to 6-OAP” value is reported as “approximately 24 times”. For the same compound, the “binding by LC-MS/MS” value in assay [7] and in assay [8] was “robust binding” throughout. Moreover, the ΔTm (usually the shift of the melting midpoint relative to a reference) at 50 µM turned out to be 0.9 °C in [9] (50 μM compound) and 0.3 °C in [10] (50 μM compound). Further, the ΔTm at 100 µM in assay [9] (100 μM compound) and in [10] (100 μM compound) was 0.6 °C throughout. The ΔTm at 200 µM in assay [9] (200 μM compound) stood at 2.1 °C; in [10] (200 μM compound) it was 2.4 °C. Besides, the thermal shift (ΔTm) at 400 µM was 10.8 °C in assay [9] (400 μM compound) and 7.8 °C in assay [10] (400 μM compound). The thermal shift (ΔTm) at 600 µM turned out to be 11.1 °C in assay [9] (600 μM compound) and 10.5 °C in assay [10] (600 μM compound). Besides, the “inhibition of Skp1-NIPA interaction (FRET ratio)” value in assay [11] is “significant inhibition”. Moreover, the cell cycle effect result in assay [12] is listed as “complete G2/M arrest”.
